The NIST ThermoML archive (doi:10.1016/j.jct.2014.07.018)

Key:
[1] = Molar enthalpy of transition or fusion; conditions: Adiabatic calorimetry
[2] = for molar entropy: 101.33 kPa, Vacuum adiabatic calorimetry; for Triple point temperature / Glass transition temperature: Adiabatic calorimetry

CCCCn1cc[n+](C)c1.[I-] [1-butyl-3-methylimidazolium iodide]
Conditions | Glass transition temperature, [2] [°C] | Molar enthalpy of transition or fusion, [1] [kcal/mol] | Triple point temperature, [2] [K]
Crystal | – | 4.539 | 291.92
Glass | -66 | – | –

molar entropy [J/K/mol], [2]
Conditions | Crystal | Glass | Liquid
0 K | – | 15.2 | –
5 K | 0.279 | 15.7 | –
10 K | 2.27 | 18.7 | –
15 K | 6.48 | 24 | –
20 K | 12.19 | 30.7 | –
25 K | 18.74 | 38.1 | –
30 K | 25.76 | 46 | –
35 K | 32.98 | 54.1 | –
40 K | 40.24 | 62.1 | –
45 K | 47.47 | 70.1 | –
50 K | 54.62 | 77.9 | –
60 K | 68.59 | 93.1 | –
70 K | 82.02 | 107.7 | –
80 K | 94.91 | 121.6 | –
90 K | 107.3 | 135 | –
100 K | 119.2 | 147.9 | –
110 K | 130.6 | 160.2 | –
120 K | 141.7 | 172 | –
130 K | 152.3 | 183.5 | –
140 K | 162.6 | 194.6 | –
150 K | 172.6 | 205.3 | –
160 K | 182.3 | 215.8 | –
170 K | 191.8 | 226.1 | –
180 K | 201.1 | 236.1 | –
190 K | 210.2 | 246 | –
200 K | 219.2 | 255.8 | –
210 K | 228.1 | – | 266.8
220 K | 236.8 | – | 280.1
230 K | 245.5 | – | 292.9
240 K | 254.1 | – | 305.3
250 K | 262.7 | – | 317.3
260 K | 271.2 | – | 328.9
270 K | 279.8 | – | 340.1
280 K | 288.5 | – | 351.1
290 K | 297.2 | – | 361.9
291.92 K | 298.8 | – | 363.9
298.15 K | – | – | 370.4
300 K | – | – | 372.3
310 K | – | – | 382.6
320 K | – | – | 392.6
330 K | – | – | 402.4
340 K | – | – | 412.1
350 K | – | – | 421.5
360 K | – | – | 430.9
370 K | – | – | 440

CCC[n+]1ccn(C)c1.[Br-] [1-methyl-3-propylimidazolium bromide]
Conditions | Glass transition temperature, [2] [°C] | Molar enthalpy of transition or fusion, [1] [kcal/mol] | Triple point temperature, [2] [K]
Crystal 2 | – | 4.567 | 309.54
Glass | -60 | – | –

molar entropy [J/K/mol], [2]
Conditions | Crystal 2 | Glass | Liquid
0 K | – | 15.3 | –
5 K | 0.097 | 15.6 | –
10 K | 0.884 | 17.7 | –
15 K | 3.03 | 21.6 | –
20 K | 6.53 | 26.8 | –
25 K | 11.08 | 32.9 | –
30 K | 16.39 | 39.5 | –
35 K | 22.19 | 46.3 | –
40 K | 28.28 | 53.3 | –
45 K | 34.52 | 60.2 | –
50 K | 40.8 | 67.1 | –
60 K | 53.3 | 80.6 | –
70 K | 65.48 | 93.6 | –
80 K | 77.24 | 106.1 | –
90 K | 88.54 | 118.1 | –
100 K | 99.4 | 129.6 | –
110 K | 109.8 | 140.6 | –
120 K | 119.9 | 151.2 | –
130 K | 129.6 | 161.4 | –
140 K | 139 | 171.3 | –
150 K | 148 | 180.8 | –
160 K | 156.9 | 190.2 | –
170 K | 165.5 | 199.3 | –
180 K | 173.9 | 208.2 | –
190 K | 182.2 | 217 | –
200 K | 190.2 | 225.6 | –
210 K | 198.2 | 234.3 | –
220 K | 206.1 | – | 244.9
230 K | 213.8 | – | 256.5
240 K | 221.5 | – | 267.7
250 K | 229.2 | – | 278.5
260 K | 236.8 | – | 289
270 K | 244.4 | – | 299.2
280 K | 252.1 | – | 309.1
290 K | 259.9 | – | 318.8
298.15 K | 266.3 | – | 326.6
300 K | – | – | 328.3
309.54 K | 275.4 | – | 337.2
310 K | – | – | 337.6
320 K | – | – | 346.7
330 K | – | – | 355.6
340 K | – | – | 364.4
350 K | – | – | 373
360 K | – | – | 381.5
370 K | – | – | 389.8
